Patent publication US8952024B2, “Herbicidal pyrimidone derivatives” (E I du Pont de Nemours and Company, priority 2009, dated 2015)

Assays:
Format in all cases: in vivo
[1] = tested on: barnyardgrass (Echinochloa crus-galli); test: Test A pre-/postemergence plant response
Outline: (§1)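 Greenhouse trial, ~10 days. Soil (loam/sand) sprayed preemergence after seeding; emerged plants (1–2 leaf, 2–10 cm) sprayed postemergence in parallel. Response = visual injury vs untreated control, 0–100.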

corn (Zea mays) = test: Test A pre-/postemergence plant response
Outline: as §1

[2] = tested on: giant foxtail (Setaria faberii); test: Test A pre-/postemergence plant response
Outline: as §1

[3] = tested on: large crabgrass (Digitaria sanguinalis); test: Test A pre-/postemergence plant response
Outline: as §1

[4] = tested on: morningglory (Ipomoea spp.); test: Test A pre-/postemergence plant response
Outline: as §1

[5] = tested on: pigweed (Amaranthus retroflexus); test: Test A pre-/postemergence plant response
Outline: as §1

[6] = tested on: velvetleaf (Abutilon theophrasti); test: Test A pre-/postemergence plant response
Outline: as §1

[7] = tested on: wheat (Triticum aestivum); test: Test A pre-/postemergence plant response
Outline: as §1

[8] = tested on: winter barley (Hordeum vulgare); test: Test B postemergence plant response; conditions: for Barley plant response rating (0 to 100 scale): 62 g ai/ha, 0 is no effect, 13 to 15 days
Outline: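 Plants at the 1- to 4-leaf stage (2 to 18 cm tall), grown in pots of peat moss/vermiculite medium with wetting agent and starter nutrients, received postemergence applications of test chemicals. After 13 to 15 days in a greenhouse, injury was rated visually against untreated controls on a 0 (no effect) to 100 (complete control) scale.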

[9] = tested on: barnyardgrass (Echinochloa crus-galli); test: Test B flooded paddy test; conditions: for Plant response rating, Flood, Barnyardgrass: 250 g ai/ha, flooded paddy test, visual rating on 0 to 100 scale (0 no effect, 100 complete control) after 13 to 15 days; for Plant response rating, Barnyardgrass: Flood (flooded paddy test), 13 to 15 days; for Barnyardgrass plant response rating: Flood, 31 g ai/ha, scale 0 to 100 (0 no effect, 100 complete control)
Outline: (§2)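 Rice, umbrella sedge, ducksalad and barnyardgrass were grown to the 2-leaf stage, flooded to 3 cm, and compound was applied directly to the paddy water, with that depth kept throughout. After 13 to 15 days in the greenhouse, plants were visually rated against controls on a 0 (no effect) to 100 (complete control) scale.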

[10] = tested on: ducksalad (Heteranthera limosa); test: Test B flooded paddy test; conditions: for Plant response rating, Flood, Ducksalad: 250 g ai/ha, flooded paddy test, visual rating on 0 to 100 scale (0 no effect, 100 complete control) after 13 to 15 days; for Plant response rating, Ducksalad: Flood (flooded paddy test), 13 to 15 days; for Ducksalad plant response rating: Flood, 31 g ai/ha, scale 0 to 100 (0 no effect, 100 complete control)
Outline: as §2

rice (Oryza sativa) = test: Test B flooded paddy test; conditions: for Plant response rating, Flood, Rice: 250 g ai/ha, flooded paddy test, visual rating on 0 to 100 scale (0 no effect, 100 complete control) after 13 to 15 days; for Plant response rating, Rice: Flood (flooded paddy test), 13 to 15 days; for Rice plant response rating: Flood, 31 g ai/ha, scale 0 to 100 (0 no effect, 100 complete control)
Outline: as §2

[11] = tested on: umbrella sedge (Cyperus difformis); test: Test B flooded paddy test; conditions: for Plant response rating, Flood, Sedge, Umbrella: 250 g ai/ha, flooded paddy test, visual rating on 0 to 100 scale (0 no effect, 100 complete control) after 13 to 15 days; for Plant response rating, Sedge, Umbrella: Flood (flooded paddy test), 13 to 15 days; for Sedge, Umbrella plant response rating: Flood, 31 g ai/ha, scale 0 to 100 (0 no effect, 100 complete control)
Outline: as §2

[12] = Postemergence, 125 g ai/ha, 0 to 100 scale where 0 is no effect and 100 is complete control
[13] = Postemergence, 500 g ai/ha, 0 to 100 scale, 0 = no effect, 100 = complete control, approx. ten days
[14] = Preemergence, 125 g ai/ha, 0 to 100 scale, 0 = no effect, 100 = complete control
[15] = Preemergence, 500 g ai/ha, visual injury, 0 to 100 scale (0 no effect, 100 complete control), approx. ten days
[16] = 31 g ai/ha, postemergence, scale 0 to 100, 0 is no effect, 100 is complete control
[17] = postemergence, 100 is complete control
[18] = Postemergence, 125 g ai/ha, visual rating after 13 to 15 days, scale 0 (no effect) to 100 (complete control)
[19] = Postemergence, 250 g ai/ha, scale 0 to 100 (0 no effect, 100 complete control)
[20] = 62 g ai/ha, scale of 0 to 100 where 0 is no effect and 100 is complete control
[21] = 125 g ai/ha, scale 0 to 100, 0 is no effect, 100 is complete control

SMILES: Cc1ccc(-c2ncc(C(=O)C3=C(O)CCCC3=O)c(=O)n2-c2ccccc2)cc1 [Compound 80]
- Plant response rating, Barnyardgrass [1, 12]: 30
- Plant response rating, Barnyardgrass [1, 13]: 80
- Plant response rating, Barnyardgrass [1, 14]: 0
- Plant response rating, Barnyardgrass [1, 15]: 10
- Plant response rating, Corn (corn (Zea mays); [12]): 0
- Plant response rating, Corn (corn (Zea mays); [13]): 50
- Plant response rating, Corn (corn (Zea mays); [14]): 0
- Plant response rating, Corn (corn (Zea mays); [15]): 0
- Plant response rating, Foxtail, Giant [2, 12]: 70
- Plant response rating, Foxtail, Giant [2, 13]: 90
- Plant response rating, Foxtail, Giant [2, 14]: 10
- Plant response rating, Foxtail, Giant [2, 15]: 60
- Plant response rating, Crabgrass, Large [3, 12]: 70
- Plant response rating, Crabgrass, Large [3, 13]: 90
- Plant response rating, Crabgrass, Large [3, 14]: 50
- Plant response rating, Crabgrass, Large [3, 15]: 90
- Plant response rating, Morningglory [4, 12]: 100
- Plant response rating, Morningglory [4, 13]: 100
- Plant response rating, Morningglory [4, 14]: 0
- Plant response rating, Morningglory [4, 15]: 30
- Plant response rating, Pigweed [5, 12]: 100
- Plant response rating, Pigweed [5, 13]: 100
- Plant response rating, Pigweed [5, 14]: 60
- Plant response rating, Pigweed [5, 15]: 90
- Plant response rating, Velvetleaf [6, 12]: 100
- Plant response rating, Velvetleaf [6, 13]: 100
- Plant response rating, Velvetleaf [6, 14]: 50
- Plant response rating, Velvetleaf [6, 15]: 100
- Plant response rating, Wheat [7, 12]: 0
- Plant response rating, Wheat [7, 13]: 0
- Plant response rating, Wheat [7, 14]: 0
- Plant response rating, Wheat [7, 15]: 0
- Plant response rating, Barley [8, 16]: 15
- Barley plant response rating (0 to 100 scale) [8, 17]: 30
- Plant response rating, Barley [8, 18]: 30
- Plant response rating, Barley [8, 19]: 75
- Plant response rating, Flood, Barnyardgrass [9]: 30
- Plant response rating, Barnyardgrass [9, 20]: 20
- Plant response rating, Barnyardgrass [9, 21]: 25
- Barnyardgrass plant response rating [9]: 15
- Plant response rating, Flood, Ducksalad [10]: 30
- Plant response rating, Ducksalad [10, 20]: 20
- Plant response rating, Ducksalad [10, 21]: 30
- Ducksalad plant response rating [10]: 0
- Plant response rating, Flood, Rice (rice (Oryza sativa)): 15
- Plant response rating, Rice (rice (Oryza sativa); [20]): 0
- Plant response rating, Rice (rice (Oryza sativa); [21]): 0
- Rice plant response rating (rice (Oryza sativa)): 0
- Plant response rating, Flood, Sedge, Umbrella [11]: 40
- Plant response rating, Sedge, Umbrella [11, 20]: 20
- Plant response rating, Sedge, Umbrella [11, 21]: 30
- Sedge, Umbrella plant response rating [11]: 0

SMILES: CC(C)CC(=O)OC1=C(C(=O)c2cnc(-c3ccccc3)n(-c3ccccc3)c2=O)C(=O)CCC1 [Compound 83]
- Plant response rating, Barnyardgrass [1, 12]: 70
- Plant response rating, Barnyardgrass [1, 13]: 90
- Plant response rating, Barnyardgrass [1, 14]: 30
- Plant response rating, Barnyardgrass [1, 15]: 90
- Plant response rating, Corn (corn (Zea mays); [12]): 0
- Plant response rating, Corn (corn (Zea mays); [13]): 30
- Plant response rating, Corn (corn (Zea mays); [14]): 0
- Plant response rating, Corn (corn (Zea mays); [15]): 20
- Plant response rating, Foxtail, Giant [2, 12]: 70
- Plant response rating, Foxtail, Giant [2, 13]: 90
- Plant response rating, Foxtail, Giant [2, 14]: 40
- Plant response rating, Foxtail, Giant [2, 15]: 90
- Plant response rating, Crabgrass, Large [3, 12]: 80
- Plant response rating, Crabgrass, Large [3, 13]: 90
- Plant response rating, Crabgrass, Large [3, 14]: 70
- Plant response rating, Crabgrass, Large [3, 15]: 100
- Plant response rating, Morningglory [4, 12]: 100
- Plant response rating, Morningglory [4, 13]: 100
- Plant response rating, Morningglory [4, 14]: 20
- Plant response rating, Morningglory [4, 15]: 60
- Plant response rating, Pigweed [5, 12]: 90
- Plant response rating, Pigweed [5, 13]: 100
- Plant response rating, Pigweed [5, 14]: 80
- Plant response rating, Pigweed [5, 15]: 100
- Plant response rating, Velvetleaf [6, 12]: 100
- Plant response rating, Velvetleaf [6, 13]: 100
- Plant response rating, Velvetleaf [6, 14]: 70
- Plant response rating, Velvetleaf [6, 15]: 100
- Plant response rating, Wheat [7, 12]: 0
- Plant response rating, Wheat [7, 13]: 0
- Plant response rating, Wheat [7, 14]: 0
- Plant response rating, Wheat [7, 15]: 30
- Plant response rating, Barley [8, 16]: 0
- Barley plant response rating (0 to 100 scale) [8, 17]: 5
- Plant response rating, Barley [8, 18]: 5
- Plant response rating, Barley [8, 19]: 5
- Plant response rating, Flood, Barnyardgrass [9]: 40
- Plant response rating, Barnyardgrass [9, 20]: 0
- Plant response rating, Barnyardgrass [9, 21]: 15
- Barnyardgrass plant response rating [9]: 0
- Plant response rating, Flood, Ducksalad [10]: 50
- Plant response rating, Ducksalad [10, 20]: 30
- Plant response rating, Ducksalad [10, 21]: 40
- Ducksalad plant response rating [10]: 20
- Plant response rating, Flood, Rice (rice (Oryza sativa)): 30
- Plant response rating, Rice (rice (Oryza sativa); [20]): 0
- Plant response rating, Rice (rice (Oryza sativa); [21]): 0
- Rice plant response rating (rice (Oryza sativa)): 0
- Plant response rating, Flood, Sedge, Umbrella [11]: 50
- Plant response rating, Sedge, Umbrella [11, 20]: 30
- Plant response rating, Sedge, Umbrella [11, 21]: 40
- Sedge, Umbrella plant response rating [11]: 0
